Among the data in US10526327B2, “Histone demethylase inhibitors” (CELGENE QUANTICEL RESEARCH, INC., priority 2013, dated 2020) are IC50 values, retold here.

The experiment addresses T1, JMJD2C (Homo sapiens, UniProt Q9H3R0).
T1 construct: purchased BPS Bioscience 50105
T1 sequence (Q9H3R0 2-372): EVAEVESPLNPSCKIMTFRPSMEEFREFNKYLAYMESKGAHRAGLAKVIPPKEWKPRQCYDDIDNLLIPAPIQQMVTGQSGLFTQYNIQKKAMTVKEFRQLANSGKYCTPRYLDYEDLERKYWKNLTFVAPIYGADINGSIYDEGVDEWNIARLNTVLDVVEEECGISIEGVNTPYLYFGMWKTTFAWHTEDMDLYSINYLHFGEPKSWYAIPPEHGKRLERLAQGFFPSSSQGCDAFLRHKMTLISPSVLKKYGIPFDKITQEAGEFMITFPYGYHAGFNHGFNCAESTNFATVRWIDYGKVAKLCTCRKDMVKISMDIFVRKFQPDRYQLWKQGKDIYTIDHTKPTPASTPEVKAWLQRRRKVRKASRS
The experiment can be described thus: JMJD2C in vitro enzyme inhibition assay (TR-FRET). It counts as biochemical. A digest of the protocol:
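IC50 came from 665/615 TR-FRET ratios (Eu-anti-H3K9me2 antibody, streptavidin-APC, EDTA quench) over 11-point inhibitor series. Reactions ran 30 min at room temperature: 0.3 nM JMJD2C (AA 2-372, baculovirus), 300 nM biotinylated H3K9me3 peptide, 2 μM alpha-ketoglutarate, 2 μM Fe(II), ascorbate, pH 7.3.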
(In general: In TR-FRET formats the signal depends on donor and acceptor labels being close together.)

In turn, `Oc1nc(Oc2cnn([C@H]3CCCN(Cc4ccccc4)C3)c2)nc2cnccc12` [Example 168, 2-({1-[(3S)-1-benzylpiperidin-3-yl]-1H-pyrazol-4-yl}oxy)pyrido[3,4-d]pyrimidin-4-ol] showed an IC50 of no more than 100 nM.

The molecule `Oc1nc(OCc2ccc(C(F)(F)F)cc2)nc2cnccc12` [Example 170, 2-{[4-(trifluoromethyl)phenyl]methoxy}pyrido[3,4-d]pyrimidin-4-ol] came in with an IC50 of 1000 to 10000 nM.

`Oc1nc(OCc2ccccc2Cl)nc2cnccc12` [Example 171, 2-[(2-chlorophenyl)methoxy]pyrido[3,4-d]pyrimidin-4-ol] showed an IC50 of no more than 100 nM.

In turn, `Oc1nc(OCc2c(Cl)cccc2Cl)nc2cnccc12` [Example 172, 2-[(2,6-dichlorophenyl)methoxy]pyrido[3,4-d]pyrimidin-4-ol] displayed a half-maximal inhibitory concentration (IC50) of 1000 to 10000 nM.

As to `Oc1nc(OCc2cccc(Cl)c2Cl)nc2cnccc12` [Example 173, 2-[(2,3-dichlorophenyl)methoxy]pyrido[3,4-d]pyrimidin-4-ol], the IC50 was no more than 100 nM.

In turn, `Oc1nc(OCCc2ccc(Cl)cc2)nc2cnccc12` [Example 174, 2-[2-(4-chlorophenyl)ethoxy]pyrido[3,4-d]pyrimidin-4-ol] showed a concentration for half-maximal inhibition (IC50) of 100 to 1000 nM.

For the molecule `Oc1nc(OCCc2ccc(Cl)c(Cl)c2)nc2cnccc12` [Example 175, 2-[2-(3,4-dichlorophenyl)ethoxy]pyrido[3,4-d]pyrimidin-4-ol], the IC50 is no more than 100 nM.

For `Oc1nc(OC(c2ccccc2)C(F)(F)F)nc2cnccc12` (centres unmarked) [Example 176, 2-(2,2,2-trifluoro-1-phenylethoxy)pyrido[3,4-d]pyrimidin-4-ol], the IC50 was no more than 100 nM.

By IC50 is commonly meant the point on the concentration scale where inhibition reaches its midpoint. Higher therefore signals weaker potency.
